Tests used:
Format in all cases: in vitro ADME
[1] = Assay 1. Stability in Simulated Gastric Fluid (SGF); details: 1 μM, 37° C., SGF pH 1.6 with pepsin
How it was run: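 Acylated compounds at a final 1 μM (diluted from 1 mM DMSO stock) were incubated at 37 °C in SGF of pH 1.6 NaCl buffer with FaSSIF powder and 0.1 mg/mL pepsin. Aliquots were quenched with acetonitrile at T0 and regular intervals, and degradation rates were determined by LC/MS.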

[2] = Assay 2. Stability in Simulated Intestinal Fluid (SIF); details: 1 μM, 37° C., SIF pH 6.7 with pancreatin
How it was run: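 Acylated compounds at 1 μM (from 1 mM DMSO stock) in fresh SIF: FaSSIF with pancreatin in pH 6.7 phosphate buffer, agitated at 37 °C. Aliquots from T0 onward quenched with 1 volume acetonitrile; LC/MS gives degradation rates.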

[3] = Assay 3. Fecal Incubation Stability; details: 1 or 10 μM, human fecal slurry, anaerobic
Method: Assay 3. Fecal Incubation Stability. This assay was used to assess the stability of an acylated active agent in a large intestine. All experiments were performed in an anaerobic chamber containing 90% nitrogen, 5% hydrogen and 5% carbon dioxide. Human fecal matter in a slurry (15% WV) is added to 96 well plates containing YCFA media or other suitable media (1.6 mL). Compounds were added to each individual well to reach a final analyte concentration of 1 or 10 μM, and the material was mixed by pipetting. At set time points a sample was removed, quenched with acetonitrile, and analyzed by LC/MS.

SMILES	Assay 1 (SGF) (% Remaining @ 1 hours) [1]	Assay 2 (SIF) (% @ Remaining 4 hours) [2]	Assay 3 (% Remaining at 24 h) [3]
CCC(=O)O[C@H]1[C@H](OC)OC[C@@H](OC(=O)CC)[C@H]1OC(=O)CC [Compound 84, (2R,3R,4R,5R)-2-methoxy-3,5-bis(propanoyloxy)oxan-4-yl Propanoate]	C (C: >75% of the tested compound remaining)	C (C: >75% of the tested compound remaining)	B (B: 25-75% of the tested compound remaining)
CCC(=O)O[C@@H]1[C@@H](OC(=O)CC)[C@H](C)O[C@H](OC(=O)/C=C/c2c[nH]c3ccccc23)[C@@H]1OC(=O)CC [Compound 139, (2R,3R,4R,5S,6S)-6-methyl-3,4,5-tris(propanoyloxy)oxan-2-yl (2E)-3-(1H-indol-3-yl)prop-2-enoate]	B (B: 25-75% of the tested compound remaining)	A (A: <25% of the tested compound remaining)	B (B: 25-75% of the tested compound remaining)
CCC(=O)O[C@@H]1[C@@H](OC(=O)CC)[C@H](OC(=O)/C=C/c2c[nH]c3ccccc23)OC[C@H]1OC(=O)CC [Compound 123, (2S,3R,4S,5R)-3,4,5-tris(propanoyloxy)oxan-2-yl (2E)-3-(1H-indol-3-yl)prop-2-enoate]	C (C: >75% of the tested compound remaining)	A (A: <25% of the tested compound remaining)	A (A: <25% of the tested compound remaining)
CCCC(=O)Oc1ccc(-c2cc(=O)c3c(OC(=O)CCC)cc(OC(=O)CCC)cc3o2)cc1 [Compound 201, 5-(butanoyloxy)-2-[4-(butanoyloxy)phenyl]-4-oxo-4H-chromen-7-yl Butanoate]	B (B: 25-75% of the tested compound remaining)	A (A: <25% of the tested compound remaining)	A (A: <25% of the tested compound remaining)
O=C(CCc1c[nH]c2ccccc12)O[C@@H]1OC[C@H](OC(=O)CCc2c[nH]c3ccccc23)[C@H](OC(=O)CCc2c[nH]c3ccccc23)[C@H]1OC(=O)CCc1c[nH]c2ccccc12 [Compound 102, (2S,3R,4S,5S)-3,4,5-tris({[3-(1H-indol-3-yl)propanoyl]oxy})oxan-2-yl 3-(1H-indol-3-yl)propanoate]	B (B: 25-75% of the tested compound remaining)	A (A: <25% of the tested compound remaining)	A (A: <25% of the tested compound remaining)
CCC(=O)O[C@@H]1[C@@H](OC(=O)CC)[C@@H](OC)OC[C@@H]1OC(=O)CC [Compound 86, (2S,3R,4S,5S)-2-methoxy-3,5-bis(propanoyloxy)oxan-4-yl Propanoate]	C (C: >75% of the tested compound remaining)	B (B: 25-75% of the tested compound remaining)	C (C: >75% of the tested compound remaining)
CCC(=O)OC1O[C@H](C(=O)O)[C@@H](OC(=O)CC)[C@H](OC(=O)CC)[C@H]1OC(=O)CC (stereo in doubt) [Compound 80, (2S,3S,4S,5R,6S)-3,4,5,6-tetrakis(propanoyloxy)oxane-2-carboxylic Acid]	C (C: >75% of the tested compound remaining)	A (A: <25% of the tested compound remaining)	A (A: <25% of the tested compound remaining)
CCCC(=O)Oc1cc(OC(=O)CCC)c2c(c1)O[C@H](c1ccc(OC(=O)CCC)c(OC(=O)CCC)c1)[C@H](OC(=O)CCC)C2 [Compound 235, (2R,3R)-2-[3,4-bis(butanoyloxy)phenyl]-5,7-bis(butanoyloxy)-3,4-dihydro-2H-1-benzopyran-3-yl Butanoate]	C (C: >75% of the tested compound remaining)	A (A: <25% of the tested compound remaining)	A (A: <25% of the tested compound remaining)
C[C@@H]1CCO[C@](C)(C(=O)Oc2ccc(/C=C/c3cc(OC(=O)[C@@]4(C)OCC[C@@H](C)O4)cc(OC(=O)[C@@]4(C)OCC[C@@H](C)O4)c3)cc2)O1 [Compound 257, 3-[(2S,4R)-2,4-dimethyl-1,3-dioxane-2-carbonyloxy]-5-[(1E)-2-{4-[(2S,4R)-2,4-dimethyl-1,3-dioxane-2-carbonyloxy]phenyl}ethenyl]phenyl (2S,4R)-2,4-dimethyl-1,3-dioxane-2-carboxylate]	C (C: >75% of the tested compound remaining)	A (A: <25% of the tested compound remaining)	A (A: <25% of the tested compound remaining)
O=C(Cc1c[nH]c2ccccc12)O[C@H]1OC[C@H](OC(=O)Cc2c[nH]c3ccccc23)[C@H](OC(=O)Cc2c[nH]c3ccccc23)[C@H]1OC(=O)Cc1c[nH]c2ccccc12 [Compound 180, (2R,3R,4S,5S)-3,4,5-tris({[2-(1H-indol-3-yl)acetyl]oxy})oxan-2-yl 2-(1H-indol-3-yl)acetate]	B (B: 25-75% of the tested compound remaining)	A (A: <25% of the tested compound remaining)	A (A: <25% of the tested compound remaining)
CCC(=O)O[C@H]1O[C@H](C(=O)O)[C@@H](OC(=O)CC)[C@H](OC(=O)CC)[C@H]1OC(=O)CC [Compound 79, (2S,3S,4S,5R,6R)-3,4,5,6-tetrakis(propanoyloxy)oxane-2-carboxylic Acid]	C (C: >75% of the tested compound remaining)	A (A: <25% of the tested compound remaining)	A (A: <25% of the tested compound remaining)
CCC(=O)O[C@@H]1[C@@H](OC(=O)CC)[C@H](OC)OC[C@H]1OC(=O)CC [Compound 106, (2R,3R,4S,5R)-2-methoxy-4,5-bis(propanoyloxyoxan-3-yl Propanoate]	C (C: >75% of the tested compound remaining)	A (A: <25% of the tested compound remaining)	A (A: <25% of the tested compound remaining)
CCC(=O)Oc1cc(C(=O)O)cc(OC(=O)CC)c1OC(=O)CC [Compound 239, 3,4,5-tris(propanoyloxy)benzoic Acid]	C (C: >75% of the tested compound remaining)	A (A: <25% of the tested compound remaining)	A (A: <25% of the tested compound remaining)
CCCC(=O)O[C@@H]1[C@@H](OC(=O)CCC)[C@@H](OC)OC[C@H]1OC(=O)CCC [Compound 104, (2S,3R,4S,5R)-4,5-bis(butanoyloxy)-2-methoxyoxan-3-yl Butanoate]	B (B: 25-75% of the tested compound remaining)	A (A: <25% of the tested compound remaining)	A (A: <25% of the tested compound remaining)
CCC(=O)O[C@H]1[C@H](OC(=O)CCc2c[nH]c3ccccc23)OC[C@@H](OC(=O)CC)[C@H]1OC(=O)CC [Compound 130, (2S,3R,4R,5R)-3,4,5-tris(propanoyloxy)oxan-2-yl 3-(1H-indol-3-yl)propanoate]	B (B: 25-75% of the tested compound remaining)	A (A: <25% of the tested compound remaining)	A (A: <25% of the tested compound remaining)
CCC(=O)O[C@@H]1[C@H](OC(=O)CC)COC(O)[C@@H]1OC(=O)CC (stereo partly drawn) [Compound 137, (3R,4R,5R)-2-hydroxy-4,5-bis(propanoyloxy)oxan-3-yl Propanoate]	C (C: >75% of the tested compound remaining)	B (B: 25-75% of the tested compound remaining)	B (B: 25-75% of the tested compound remaining)
CCC(=O)O[C@@H]1[C@@H](OC(=O)CC)[C@H](OC(=O)CCc2c[nH]c3ccccc23)OC[C@@H]1OC(=O)CC [Compound 107, (2S,3R,4S,5S)-3,4,5-tris(propanoyloxy)oxan-2-yl 3-(1H-indol-3-yl)propanoate]	C (C: >75% of the tested compound remaining)	A (A: <25% of the tested compound remaining)	A (A: <25% of the tested compound remaining)
CCC(=O)O[C@H]1OC[C@@H](OC(=O)CC)[C@@H](OC(=O)CC)[C@H]1OC(=O)CC [Compound 133, (2R,3R,4R,5R)-3,4,5-tris(propanoyloxy)oxan-2-yl Propanoate]	C (C: >75% of the tested compound remaining)	A (A: <25% of the tested compound remaining)	A (A: <25% of the tested compound remaining)
CO[C@H]1OC[C@@H](OC(C)=O)[C@H](OC(C)=O)[C@H]1OC(C)=O [Compound 46, (2S,3R,4S,5R)-2-methoxytetrahydro-2H-pyran-3,4,5-triyl Triacetate]	C (C: >75% of the tested compound remaining)	B (B: 25-75% of the tested compound remaining)	B (B: 25-75% of the tested compound remaining)

— US10953027B2, “Active agents and methods of their use for the treatment of metabolic disorders and nonalcoholic fatty liver disease” (Flagship Pioneering Innovations V, Inc., priority 2018, dated 2021)
